Several values for one entry are separate records, joined by “and”; a condition that tells them apart may be missing. Equal values may be shown once.
Test system: DMS-114 complex spheroids with HUVEC/MSC, growth % test/control
Assay: Anticancer human tumor DMS-114 cell line growth inhibition [AhR];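 further: spheroids exposed to agents for 7 days before readout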;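 on viability, T/C: 100% = DMSO vehicle control wells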
Conditions: for viability, T/C: stronger effect = lower value
Method in brief: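 Complex tumor spheroids co-cultured with HUVEC and human MSC stroma; AhR antagonists tested in combination with standard-of-care and investigational agents. Top concentration at or near clinical Cmax (else 10 microM), half-log dilutions; growth expressed as percent test/control.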

[1] = curve of first compound, second compound 0.1 µM
[2] = curve of first compound, second compound 0.316 µM
[3] = curve of first compound, second compound 1 µM
[4] = curve of first compound, second compound 3.16 µM
[5] = curve of first compound, second compound 10 µM
[6] = second compound 0.1 µM, first compound 0.00949 µM
[7] = second compound 0.1 µM, first compound 0.03 µM
[8] = second compound 0.1 µM, first compound 0.0949 µM
[9] = second compound 0.1 µM, first compound 0.3 µM
[10] = second compound 0.316 µM, first compound 0.00949 µM
[11] = second compound 0.316 µM, first compound 0.03 µM
[12] = second compound 0.316 µM, first compound 0.0949 µM
[13] = second compound 0.316 µM, first compound 0.3 µM
[14] = second compound 1 µM, first compound 0.00949 µM
[15] = second compound 1 µM, first compound 0.03 µM
[16] = second compound 1 µM, first compound 0.0949 µM
[17] = second compound 1 µM, first compound 0.3 µM
[18] = second compound 3.16 µM, first compound 0.00949 µM
[19] = second compound 3.16 µM, first compound 0.03 µM
[20] = second compound 3.16 µM, first compound 0.0949 µM
[21] = second compound 3.16 µM, first compound 0.3 µM
[22] = second compound 10 µM, first compound 0.00949 µM
[23] = second compound 10 µM, first compound 0.03 µM
[24] = second compound 10 µM, first compound 0.0949 µM
[25] = second compound 10 µM, first compound 0.3 µM
[26] = second compound 0.1 µM, first compound 0.0316 µM
[27] = second compound 0.1 µM, first compound 0.1 µM
[28] = second compound 0.1 µM, first compound 0.316 µM
[29] = second compound 0.1 µM, first compound 1 µM
[30] = second compound 0.316 µM, first compound 0.0316 µM
[31] = second compound 0.316 µM, first compound 0.1 µM
[32] = second compound 0.316 µM, first compound 0.316 µM
[33] = second compound 0.316 µM, first compound 1 µM
[34] = second compound 1 µM, first compound 0.0316 µM
[35] = second compound 1 µM, first compound 0.1 µM
[36] = second compound 1 µM, first compound 0.316 µM
[37] = second compound 1 µM, first compound 1 µM
[38] = second compound 3.16 µM, first compound 0.0316 µM
[39] = second compound 3.16 µM, first compound 0.1 µM
[40] = second compound 3.16 µM, first compound 0.316 µM
[41] = second compound 3.16 µM, first compound 1 µM
[42] = second compound 10 µM, first compound 0.0316 µM
[43] = second compound 10 µM, first compound 0.1 µM
[44] = second compound 10 µM, first compound 0.316 µM
[45] = second compound 10 µM, first compound 1 µM

SMILES: Nc1ncn(C2CC(O)C(CO)S2)c(=O)n1 (centres undefined) + CC(CO)NC(=O)c1cc(-c2ccc(Cl)cc2)nn(-c2cnn(C)c2)c1=O
- IC50 [1]: > 300 nM
- IC50 [2]: > 300 nM
- IC50 [3]: > 300 nM
- IC50 [4]: > 300 nM
- IC50 [5]: > 300 nM
- viability, T/C (second compound 0.1 µM, first compound 0.000949 µM): 117%
- viability, T/C (second compound 0.1 µM, first compound 0.003 µM): 101%
- viability, T/C [6]: 108%
- viability, T/C [7]: 115%
- viability, T/C [8]: 85.3%
- viability, T/C [9]: 59.5%
- viability, T/C (second compound 0.316 µM, first compound 0.000949 µM): 111%
- viability, T/C (second compound 0.316 µM, first compound 0.003 µM): 113%
- viability, T/C [10]: 92.7%
- viability, T/C [11]: 89.5%
- viability, T/C [12]: 79.9%
- viability, T/C [13]: 58.3%
- viability, T/C (second compound 1 µM, first compound 0.000949 µM): 107%
- viability, T/C (second compound 1 µM, first compound 0.003 µM): 107%
- viability, T/C [14]: 96.9%
- viability, T/C [15]: 102%
- viability, T/C [16]: 80%
- viability, T/C [17]: 55.7%
- viability, T/C (second compound 3.16 µM, first compound 0.000949 µM): 112%
- viability, T/C (second compound 3.16 µM, first compound 0.003 µM): 107%
- viability, T/C [18]: 115%
- viability, T/C [19]: 118%
- viability, T/C [20]: 66.2%
- viability, T/C [21]: 51.9%
- viability, T/C (second compound 10 µM, first compound 0.000949 µM): 126%
- viability, T/C (second compound 10 µM, first compound 0.003 µM): 108%
- viability, T/C [22]: 108%
- viability, T/C [23]: 103%
- viability, T/C [24]: 87.8%
- viability, T/C [25]: 58%

SMILES: CC1COCCN1c1cc(-c2ccnn2C)c2ccnc(-c3ccn[nH]3)c2n1 (centres undefined) + Cc1cncc(-c2nc(NCCc3c[nH]c4ccccc34)c3ncn(C(C)C)c3n2)c1
- IC50 [1]: 38 nM
- IC50 [2]: 51 nM
- IC50 [3]: 41.5 nM
- IC50 [4]: 41.8 nM
- IC50 [5]: < 3.16 nM
- viability, T/C (second compound 0.1 µM, first compound 0.00316 µM): 90.6%
- viability, T/C (second compound 0.1 µM, first compound 0.01 µM): 85.9%
- viability, T/C [26]: 51%
- viability, T/C [27]: 29.9%
- viability, T/C [28]: 19.6%
- viability, T/C [29]: 12.8%
- viability, T/C (second compound 0.316 µM, first compound 0.00316 µM): 97.1%
- viability, T/C (second compound 0.316 µM, first compound 0.01 µM): 93.7%
- viability, T/C [30]: 61.8%
- viability, T/C [31]: 31.4%
- viability, T/C [32]: 19.8%
- viability, T/C [33]: 12%
- viability, T/C (second compound 1 µM, first compound 0.00316 µM): 87.5%
- viability, T/C (second compound 1 µM, first compound 0.01 µM): 92.6%
- viability, T/C [34]: 55.3%
- viability, T/C [35]: 27.9%
- viability, T/C [36]: 23.6%
- viability, T/C [37]: 11.7%
- viability, T/C (second compound 3.16 µM, first compound 0.00316 µM): 83.9%
- viability, T/C (second compound 3.16 µM, first compound 0.01 µM): 85.9%
- viability, T/C [38]: 55.8%
- viability, T/C [39]: 26.7%
- viability, T/C [40]: 17%
- viability, T/C [41]: 11.2%
- viability, T/C (second compound 10 µM, first compound 0.00316 µM): 28.8%
- viability, T/C (second compound 10 µM, first compound 0.01 µM): 29.6%
- viability, T/C [42]: 22.6%
- viability, T/C [43]: 15.5%
- viability, T/C [44]: 9.12%
- viability, T/C [45]: 7.26%

SMILES: O=C(C=Cc1cccc(S(=O)(=O)Nc2ccccc2)c1)NO
- viability, T/C (compound 0.0316 µM): 88.4% and 108% and 83%
- viability, T/C (compound 0.1 µM): 85.7% and 103% and 74.2%
- viability, T/C (compound 0.316 µM): 54.9% and 91% and 60%
- viability, T/C (compound 1 µM): 29.6% and 69.9% and 26.9%
- viability, T/C (compound 3.16 µM): 13.4% and 26.4% and 15.6%
- viability, T/C (compound 10 µM): 9.67% and 29.7% and 13.6%
- IC50 (curve of compound): 424 nM and 1730 nM and 436 nM

SMILES: COc1cc(C2c3cc4c(cc3C(OC3OC5COC(C)OC5C(O)C3O)C3COC(=O)C23)OCO4)cc(OC)c1O (centres undefined)
- viability, T/C (compound 0.0316 µM): 96.4% and 99.5% and 94.3%
- viability, T/C (compound 0.1 µM): 85.2% and 85.9% and 99%
- viability, T/C (compound 0.316 µM): 57.3% and 77% and 89.2%
- viability, T/C (compound 1 µM): 23.7% and 34.1% and 60.9%
- viability, T/C (compound 3.16 µM): 16.9% and 30.2% and 40.8%
- viability, T/C (compound 10 µM): 9.04% and 15.1% and 30.3%
- IC50 (curve of compound): 402 nM and 682 nM and 1810 nM

SMILES: O=C(C=Cn1cnc(-c2cc(C(F)(F)F)cc(C(F)(F)F)c2)n1)NNc1cnccn1 + Cc1cncc(-c2nc(NCCc3c[nH]c4ccccc34)c3ncn(C(C)C)c3n2)c1
- IC50 [1]: 158 nM
- IC50 [2]: 175 nM
- IC50 [3]: 166 nM
- IC50 [4]: 166 nM
- IC50 [5]: < 9.49 nM
- viability, T/C [6]: 111%
- viability, T/C [7]: 101%
- viability, T/C [8]: 61.7%
- viability, T/C [9]: 32.7%
- viability, T/C (second compound 0.1 µM, first compound 0.949 µM): 15.1%
- viability, T/C (second compound 0.1 µM, first compound 3 µM): 5.4%
- viability, T/C [10]: 103%
- viability, T/C [11]: 99.8%
- viability, T/C [12]: 63.5%
- viability, T/C [13]: 36.6%
- viability, T/C (second compound 0.316 µM, first compound 0.949 µM): 14.4%
- viability, T/C (second compound 0.316 µM, first compound 3 µM): 5.66%
- viability, T/C [14]: 110%
- viability, T/C [15]: 109%
- viability, T/C [16]: 65.3%
- viability, T/C [17]: 31.7%
- viability, T/C (second compound 1 µM, first compound 0.949 µM): 13.6%
- viability, T/C (second compound 1 µM, first compound 3 µM): 5.72%
- viability, T/C [18]: 94%
- viability, T/C [19]: 109%
- viability, T/C [20]: 61.1%
- viability, T/C [21]: 34.5%
- viability, T/C (second compound 3.16 µM, first compound 0.949 µM): 15.1%
- viability, T/C (second compound 3.16 µM, first compound 3 µM): 5.67%
- viability, T/C [22]: 38.6%
- viability, T/C [23]: 34.2%
- viability, T/C [24]: 30.6%
- viability, T/C [25]: 21.1%
- viability, T/C (second compound 10 µM, first compound 0.949 µM): 13.5%
- viability, T/C (second compound 10 µM, first compound 3 µM): 7.49%

SMILES: COc1cc(C2c3cc4c(cc3C(OC3OC5COC(C)OC5C(O)C3O)C3COC(=O)C23)OCO4)cc(OC)c1O (centres undefined) + Cc1cncc(-c2nc(NCCc3c[nH]c4ccccc34)c3ncn(C(C)C)c3n2)c1
- IC50 [1]: 448 nM
- IC50 [2]: 351 nM
- IC50 [3]: 390 nM
- IC50 [4]: 298 nM
- IC50 [5]: < 31.6 nM
- viability, T/C [26]: 102%
- viability, T/C [27]: 97.8%
- viability, T/C [28]: 58.1%
- viability, T/C [29]: 27%
- viability, T/C (second compound 0.1 µM, first compound 3.16 µM): 16.5%
- viability, T/C (second compound 0.1 µM, first compound 10 µM): 8.1%
- viability, T/C [30]: 96.4%
- viability, T/C [31]: 96.3%
- viability, T/C [32]: 50.4%
- viability, T/C [33]: 24.9%
- viability, T/C (second compound 0.316 µM, first compound 3.16 µM): 16.3%
- viability, T/C (second compound 0.316 µM, first compound 10 µM): 9.46%
- viability, T/C [34]: 92.7%
- viability, T/C [35]: 94.6%
- viability, T/C [36]: 54.6%
- viability, T/C [37]: 23.5%
- viability, T/C (second compound 1 µM, first compound 3.16 µM): 17.6%
- viability, T/C (second compound 1 µM, first compound 10 µM): 9.48%
- viability, T/C [38]: 87.1%
- viability, T/C [39]: 93.3%
- viability, T/C [40]: 47.5%
- viability, T/C [41]: 21.9%
- viability, T/C (second compound 3.16 µM, first compound 3.16 µM): 15.7%
- viability, T/C (second compound 3.16 µM, first compound 10 µM): 8.67%
- viability, T/C [42]: 42.3%
- viability, T/C [43]: 41.6%
- viability, T/C [44]: 21.7%
- viability, T/C [45]: 10.2%
- viability, T/C (second compound 10 µM, first compound 3.16 µM): 8.09%
- viability, T/C (second compound 10 µM, first compound 10 µM): 5.18%

Reference: PubChem BioAssay AID1919008 (Molecular Pharmacology Branch, DTP, NCI, 2023)
